Source: patent publication US20020165286A1, “Dermal anti-inflammatory composition” (priority 2000, published 2002)
Read-outs that look alike come from different tables or passages of the source.

Tests used:
[1] = cited from earlier work
[2] = cited from earlier work; remark: listed apart in the source
[3] = cited from earlier work; remark: listed apart in the source
[4] = cited from earlier work; remark: listed apart in the source
[5] = cited from earlier work; remark: listed apart in the source
rhino mouse = test: Rhino mouse study: comedolytic activity (number of utriculi, epidermal thickness); format: in vivo, rhino mice (RHJ/LeJ Rhino, hr^rh/hr^rh); conditions: test substance dissolved in ethanol only
Description: The rhino mouse is an in vivo model for the study of hyperplastic and comedolytic potency of various drugs used in the treatment of acne. The rhino mouse has follicles on the skin. The orifices are distended with horny material and these structures resembles human microcomedones and are referred to as utriculi or pseudocomedones.
In the present study, the comedolytic activity and skin irritation potential of 3% w/v solutions of test substance (1) in different vehicles was studied in order to select a formulation suited for topical application. Selected commercial acne products were included in the study for the purpose of comparison.
105 female rhino mice (RHJ/LeJ Rhino, hr^rh/hr^rh) aged 6-9 weeks were obtained from M&B A/S, Denmark. The mice were placed in cages with free access to a commercial rodent diet (Altromin 1324) and tap water. […]
The mice were killed one day after the end of the treatment period and the dorsal skin was removed. […] These slices were evaluated under the microscope (Nikon LABOPHOT-2) for the number of epidermal utriculi and utriculi profile (×200) and the epidermal thickness (×400), and the mean value and standard deviation for each animal was estimated. […]

In the case of `O=C(O)CCCCCCCC(=O)O` [Azelaic acid], the Anti-inflam. ([1]; topical administration) is listed as “Maybe”, the Antibacterial ([2]; topical administration) is listed as “Yes” and the Comedolytic ([3]; topical administration) is listed as “Yes”. For the same compound, the Potential irritant ([4]; topical administration) was “Yes” and the Teratogenic ([5]; topical administration) was “No”.
For `O=C(OOC(=O)c1ccccc1)c1ccccc1` [Benzoyl peroxide], the Anti-inflam. ([1]; topical administration) is given as “Maybe”, the Antibacterial ([2]; topical administration) is given as “Yes” and the Comedolytic ([3]; topical administration) is given as “Somewhat”. For the same compound, the Potential irritant ([4]; topical administration) was “Yes”.
For `CN(C)c1ccc(O)c2c1C[C@H]1C[C@H]3[C@H](N(C)C)C(O)=C(C(N)=O)C(=O)[C@@]3(O)C(O)=C1C2=O` [Minocyclin], the Anti-inflam. ([1]; systemic administration) is listed as “Yes”, the Antibacterial ([2]; systemic administration) is listed as “Yes” and the Comedolytic ([3]; systemic administration) is listed as “No”. The Teratogenic ([5]; systemic administration) was “Yes”.
For `Cc1cc(F)ccc1Nc1ccc(C(=O)c2ccccc2C)c(Cl)c1` [test substance (1), 2-chloro-4-(4-fluoro-2-methyl-phenylamino)-2′-methylbenzophenone], the “reduction in the number of utriculi” value (rhino mouse) was 51%.
In the case of `CC1=C(/C=C/C(C)=C/C=C/C(C)=C/C(=O)O)C(C)(C)CCC1` [Tretinoin], the Anti-inflam. ([1]; topical administration) is listed as “No”, the Antibacterial ([2]; topical administration) is listed as “No” and the Comedolytic ([3]; topical administration) is listed as “Yes”. The Potential irritant ([4]; topical administration) was “Yes” and the Teratogenic ([5]; topical administration) was “Maybe”.
For `CC1=C(/C=C/C(C)=C/C=C/C(C)=C\C(=O)O)C(C)(C)CCC1` [Isotretinoin], the Anti-inflam. ([1]; systemic administration) is given as “Yes”, the Antibacterial ([2]; systemic administration) is given as “Yes” and the Comedolytic ([3]; systemic administration) is given as “Yes”. The Potential irritant ([4]; systemic administration) was “Yes” and the Teratogenic ([5]; systemic administration) was “Yes”.
In the case of `CN(C)[C@@H]1C(=O)C(C(N)=O)=C(O)[C@@]2(O)C(=O)C3=C(O)c4c(O)cccc4[C@@](C)(O)[C@H]3C[C@@H]12` [Tetracyclin], the Anti-inflam. ([1]; systemic administration) is given as “Yes”, the Antibacterial ([2]; systemic administration) is given as “Yes” and the Comedolytic ([3]; systemic administration) is given as “No”. The Potential irritant ([4]; systemic administration) was “No” and the Teratogenic ([5]; systemic administration) was “Yes”.
In the case of `C[C@H]1c2cccc(O)c2C(O)=C2C(=O)[C@]3(O)C(O)=C(C(N)=O)C(=O)[C@@H](N(C)C)[C@@H]3[C@@H](O)[C@@H]21` [Doxycyclin], the Anti-inflam. ([1]; systemic administration) is given as “Yes”, the Antibacterial ([2]; systemic administration) is given as “Yes” and the Comedolytic ([3]; systemic administration) is given as “No”. The Potential irritant ([4]; systemic administration) was “No” and the Teratogenic ([5]; systemic administration) was “Yes”.
